Experiment [1] has as its target T1, Human IBAT (Homo sapiens, UniProt Q12908).
T1 construct: expressed in transfected cells; kept under Puromycin selection
T1 sequence (Q12908 1-348): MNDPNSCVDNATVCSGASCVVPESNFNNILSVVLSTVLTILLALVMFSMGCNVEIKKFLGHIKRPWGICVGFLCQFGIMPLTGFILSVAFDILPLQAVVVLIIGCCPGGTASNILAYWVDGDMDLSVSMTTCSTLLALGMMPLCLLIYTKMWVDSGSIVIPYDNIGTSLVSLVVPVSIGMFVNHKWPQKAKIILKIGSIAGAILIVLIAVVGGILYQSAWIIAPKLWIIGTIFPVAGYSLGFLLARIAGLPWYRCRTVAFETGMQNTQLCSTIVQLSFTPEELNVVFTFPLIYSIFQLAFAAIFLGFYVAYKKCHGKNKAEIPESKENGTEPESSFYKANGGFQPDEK
Briefly: IBAT (h/m) assay, human IBAT-overexpressing cells, 3H-taurocholic acid uptake. It is filed as cell-based. As to conditions: 0.25 μM 3H-taurocholic acid and 5 μM cold taurocholic acid, 20 minutes, highest test concentration 10 μM, read-out: hIBAT IC50. Here is the method:
IBAT (h/m) Assay Protocol
10,000 cells (Human or Mouse IBAT-overexpressing cells) were seeded in 96-wells plate (Corning CLS3809) in 200 μL MEM-alpha medium (Gibco 12571-063) supplemented with 10% FBS (Gibco 10438026) containing Puromycin (Gibco A1113803) (10 μg/mL) and incubated at 37° C. in 5% CO2 for 48 hours. After incubation, media was decanted from the wells and cells were washed two times with 300 μL of basal MEM-alpha medium (FBS-free). After decanting basal MEM-alpha medium each time, plates were tapped against paper towel to ensure maximum removal of residual media. Test inhibitor dilutions (highest test concentration being 10 μM, 3-fold serial dilution, 10 points) prepared in DMSO (Sigma D2650) were added in incubation mix (maintaining 0.2% final DMSO concentration) containing 0.25 μM 3H-taurocholic acid (ARC ART-1368) and 5 μM of cold taurocholic acid (Sigma T4009). 50 μL of incubation mix containing test inhibitors was then added to the wells (in duplicate) and the plates were incubated for 20 minutes in a CO2 incubator at 37° C. After incubation, the reaction was stopped by keeping the plates on ice water mix for 2-3 minutes and then the incubation mix was aspirated completely from the wells. The wells were washed two times with 250 μL of chilled unlabelled 1 mM taurocholic acid dissolved in HEPES (Gibco 15630080)-buffered (10 mM) HBSS (Gibco 14175079) (pH 7.4). The plates were tapped against a paper towel after every wash to ensure maximum removal of blocking buffer.
100 μL of MicroScint-20 (PerkinElmer 6013621) was added to the wells and kept overnight at room temperature before reading the plates in TopCount NXT™ Microplate Scintillation and Luminescence Counter from PerkinElmer under 3H Test protocol (set at 120 seconds reading time per well).
(§1) Preparation of Test Compound Dilutions
(§2) All test compounds were provided in powder form at room temperature. 10 mM DMSO stocks of the test compounds were prepared, aliquoted and stored at −20° C. From the 10 mM DMSO stock of the compounds, a 3-fold serial dilution in DMSO was prepared to get a total of 10 dilutions of the test compounds. 0.5 μL of this dilution in DMSO was added to 250 μL of FBS-free basal media containing 3H-taurocholic acid and cold taurocholic acid to prepare the incubation mixture.

The target in experiment [2] is T2, Human LBAT (Homo sapiens, UniProt Q14973).
T2 construct: expressed in transfected cells; kept under Geneticin selection
T2 sequence (Q14973 1-349): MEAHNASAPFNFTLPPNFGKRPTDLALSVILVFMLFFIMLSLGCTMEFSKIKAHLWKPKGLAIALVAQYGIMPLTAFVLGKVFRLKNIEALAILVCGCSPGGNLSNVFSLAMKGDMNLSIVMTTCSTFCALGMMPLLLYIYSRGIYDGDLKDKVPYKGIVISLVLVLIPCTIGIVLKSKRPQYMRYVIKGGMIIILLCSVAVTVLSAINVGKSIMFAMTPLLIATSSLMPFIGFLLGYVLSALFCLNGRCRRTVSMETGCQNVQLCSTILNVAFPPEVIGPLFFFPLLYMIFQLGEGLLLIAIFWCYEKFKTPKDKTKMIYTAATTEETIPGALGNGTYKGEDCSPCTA
Put plainly: LBAT (h/m) assay, human LBAT-overexpressing cells, 3H-taurocholic acid uptake. Format: cell-based. To be noted: 0.3 μM 3H-taurocholic acid and 7.5 μM cold taurocholic acid, 20 minutes, read-out: hLBAT IC50. As to the method:
LBAT (h/m) Assay Protocol
20,000 cells (Human or Mouse LBAT-overexpressing cells) were seeded in 96-wells plate (Corning CLS3809) in 100 μL MEM-alpha medium (Gibco 12571-063) supplemented with 10% FBS (Gibco 10438026) containing Geneticin (Gibco 10131-027) (1 mg/mL) and incubated at 37° C. in 5% CO2 for 24 hours. After incubation, media was decanted from the wells and cells were washed two times with 300 μL of basal MEM-alpha medium (FBS-free). After decanting basal MEM-alpha medium each time, plates were tapped against paper towel to ensure maximum removal of residual media.
For human LBAT, incubation mix was prepared by adding test inhibitor dilutions (3-fold serial dilution in DMSO (Sigma D2650), 10 points) in MEM-alpha (without FBS) containing 0.3 μM 3H-taurocholic acid (ARC ART-1368) and 7.5 μM cold taurocholic acid (Sigma T4009) (maintaining 0.2% final DMSO concentration). For mouse LBAT, incubation mix was prepared by adding test inhibitor dilutions (3-fold serial dilution in DMSO, 10 points) in MEM-alpha (without FBS) containing 0.3 μM 3H-taurocholic acid and 25 μM cold taurocholic acid maintaining 0.2% final DMSO concentration).
50 μL of incubation mix containing test inhibitors was then added to the wells (in duplicate) and the plates were incubated for 20 minutes in a CO2 incubator at 37° C. After incubation, the reaction was stopped by keeping the plates on ice water mix for 2-3 minutes and then the incubation mix was aspirated completely from the wells. The wells were washed two times with 250 μL of chilled unlabelled 1 mM taurocholic acid dissolved in HEPES (Gibco 15630080)-buffered (10 mM) HBSS (Gibco 14175079) (pH 7.4). The plates were tapped against a paper towel after every wash to ensure maximum removal of blocking buffer.
100 μL of MicroScint-20 (PerkinElmer 6013621) was added to the wells and kept overnight at room temperature before reading the plates in TopCount NXT™ Microplate Scintillation and Luminescence Counter from PerkinElmer under 3H Test protocol (set at 120 seconds reading time per well, with normal plate orientation).
as §1, §2

The structures appear in SMILES notation.

On to `CCCCC1CN(c2ccccc2)c2cc(SC)c(OCC3(C(=O)O)CC3)cc2S(=O)(=O)N1C` (single isomer, unassigned) [4, enantiomer 1], for which the results for the IC50 in experiment [1] and in experiment [2] were at least 10 µM and 0.673 µM, respectively. For the compound `CCCCC1CN(c2ccc(F)cc2)c2cc(SC)c(OCC3(C(=O)O)CC3)cc2S(=O)(=O)N1C` (stereo not drawn) [Example 11, 1-(((3-butyl-5-(4-fluorophenyl)-2-methyl-7-(methylthio)-1,1-dioxido-2,3,4,5-tetrahydro-1,2,5-benzothiadiazepin-8-yl)oxy)methyl)cyclopropane-1-carboxylic acid], the half-inhibitory concentration (IC50) in experiment [1] worked out at 0.167 µM; in experiment [2], 0.0045 µM. In the case of `CCCCC1CN(c2ccccc2)c2cc(SC)c(OCC(OC)C(=O)O)cc2S(=O)(=O)N1C` (single isomer, unassigned) [32, diastereomer 2], the IC50 was 4.78 µM in experiment [1] and 0.032 µM in experiment [2]. Taken in the same sequence, the figures for `CCCCC1CN(c2ccccc2)c2cc(SC)c(OCC(OC)C(=O)O)cc2S(=O)(=O)N1C` (single isomer, unassigned) [31, stereoisomer 2] were 2.09 µM and 0.022 µM. With `CCCCC1CN(c2ccccc2)c2cc(SCC)c(OCC(C)(C)C(=O)O)cc2S(=O)(=O)N1C` (single isomer, unassigned) [6, enantiomer 1], in experiment [2], the IC50 came to 0.536 µM. With `CCCCC1CN(c2ccccc2)c2cc(SC)c(OCC(C)(C)C(=O)O)cc2S(=O)(=O)N1C` (stereo not drawn) [Example 1, 3-((3-Butyl-2-methyl-7-(methylthio)-1,1-dioxido-5-phenyl-2,3,4,5-tetrahydro-1,2,5-benzothiadiazepin-8-yl)oxy)-2,2-dimethylpropanoic acid], the half-inhibitory concentration (IC50) in experiment [2] was 0.0098 µM. Regarding `CCCCC1CN(c2ccccc2)c2cc(SC)c(OCCC(=O)O)cc2S(=O)(=O)C1` (stereo not drawn) [Example 25, 3-((3-butyl-7-(methylthio)-1,1-dioxido-5-phenyl-2,3,4,5-tetrahydro-1,5-benzothiazepin-8-yl)oxy)propanoic acid], the concentration for half-maximal inhibition (IC50) in experiment [2] came out at 0.093 µM. As to `CCCCC1CN(c2ccccc2)c2cc(SC)c(OCC(F)(F)C(=O)O)cc2S(=O)(=O)N1C` (stereo not drawn) [Example 20, 3-((3-butyl-2-methyl-7-(methylthio)-1,1-dioxido-5-phenyl-2,3,4,5-tetrahydro-1,2,5-benzothiadiazepin-8-yl)oxy)-2,2-difluoropropanoic acid], the IC50 amounted to 0.259 µM in experiment [1] and 0.0011 µM in experiment [2]. Taken in the same sequence, the figures for `CCCCC1CN(c2ccc(F)cc2)c2cc(SCC)c(OCC3(C(=O)O)CC3)cc2S(=O)(=O)N1` (single isomer, unassigned) [19, enantiomer 2] were over 3.33 µM and 0.106 µM. Turning to `CCCCC1CN(c2ccc(F)cc2)c2cc(SC)c(OCC(C)(C)C(=O)O)cc2S(=O)(=O)C1` (stereo not drawn) [Example 9, 3-((3-butyl-5-(4-fluorophenyl)-7-(methylthio)-1,1-dioxido-2,3,4,5-tetrahydro-1,5-benzothiazepin-8-yl)oxy)-2,2-dimethylpropanoic acid], the 50% inhibitory concentration (IC50) worked out at 2.7 µM in experiment [1] and 0.0053 µM in experiment [2]. Taken in the same sequence, the figures for `CCCCC1CN(c2ccccc2)c2cc(SC)c(OCC(C)(C)C(=O)O)cc2S(=O)(=O)N1C` (single isomer, unassigned) [2, enantiomer 1] were at least 10 µM and 2.28 µM. The corresponding values for `CCCCC1CN(c2ccc(F)cc2)c2cc(SC)c(OCC3(C(=O)O)CC3)cc2S(=O)(=O)C1` (stereo not drawn) [Example 10, 1-(((3-butyl-5-(4-fluorophenyl)-7-(methylthio)-1,1-dioxido-2,3,4,5-tetrahydro-1,5-benzothiazepin-8-yl)oxy)methyl)cyclopropane-1-carboxylic acid] are 0.678 µM and 0.01 µM. As to `CCCCC1CN(c2ccccc2)c2cc(SC)c(OCC(F)(F)C(=O)O)cc2S(=O)(=O)N1C` (single isomer, unassigned) [21, enantiomer 1], the IC50 in experiment [1] is over 10 µM; in experiment [2], over 0.333 µM.

`CCCCC1CN(c2ccccc2)c2cc(SC)c(OCC(OC)C(=O)O)cc2S(=O)(=O)N1C` (stereo not drawn) [Example 30, 3-((3-butyl-2-methyl-7-(methylthio)-1,1-dioxido-5-phenyl-2,3,4,5-tetrahydro-1,2,5-benzothiadiazepin-8-yl)oxy)-2-methoxypropanoic acid]: the concentration for half-maximal inhibition (IC50) in experiment [2] was found to be 0.064 µM. As for `CCCCC1CN(c2ccc(F)cc2)c2cc(SCC)c(OCC3(C(=O)O)CC3)cc2S(=O)(=O)N1` (stereo not drawn) [Example 18, 1-(((3-butyl-7-(ethylthio)-5-(4-fluorophenyl)-1,1-dioxido-2,3,4,5-tetrahydro-1,2,5-benzothiadiazepin-8-yl)oxy)methyl)cyclopropane-1-carboxylic acid], the IC50 in experiment [1] was 0.46 µM; in experiment [2], 0.0033 µM. Taken in the same sequence, the figures for `CCCCC1CN(c2ccccc2)c2cc(SCC)c(OCC3(C(=O)O)CC3)cc2S(=O)(=O)N1C` (single isomer, unassigned) [8, enantiomer 2] were 4.97 µM and 0.591 µM. As for `CCCCC1CN(c2ccccc2)c2cc(SC)c(OCC(O)C(=O)O)cc2S(=O)(=O)C1` (stereo not drawn) [Example 28, 3-((3-butyl-7-(methylthio)-1,1-dioxido-5-phenyl-2,3,4,5-tetrahydro-1,5-benzothiazepin-8-yl)oxy)-2-hydroxypropanoic acid], the IC50 in experiment [2] turned out to be 0.187 µM.

As for `CCCCC1CN(c2ccccc2)c2cc(SC)c(OCCC(=O)O)cc2S(=O)(=O)C1` (single isomer, unassigned) [26, enantiomer 1], in experiment [2], the IC50 was 0.059 µM. Still for that read-out and setting: next, `CCCCC1CN(c2ccccc2)c2cc(SC)c(OCC(OC)C(=O)O)cc2S(=O)(=O)N1C` (single isomer, unassigned) [31, stereoisomer 1]: 5.68 µM. As to `CCCCC1CN(c2ccc(F)cc2)c2cc(SC)c(OCC3(C(=O)O)CC3)cc2S(=O)(=O)N1` (stereo not drawn) [Example 16, 1-(((3-butyl-5-(4-fluorophenyl)-7-(methylthio)-1,1-dioxido-2,3,4,5-tetrahydro-1,2,5-benzothiadiazepin-8-yl)oxy)methyl)cyclopropane-1-carboxylic acid], the IC50 in experiment [1] stood at 0.464 µM; in experiment [2], 0.0034 µM.

Broadly, the IC50 is the concentration that gives 50% inhibition.

The values above are taken from US12365658B2, “Benzothia(di)azepine compounds and their use as bile acid modulators” (Albireo AB, priority 2021, dated 2025).
